From article PMC12029898, “Cellular Metabolomics Reveals Differences in the Scope of Liver Protection Between Ammonium-Based Glycyrrhizinate and Magnesium Isoglycyrrhizinate” (Metabolites, 2025) come the findings set out here.

Data set [1] relates to LO2 cells. The data set is described as follows: Cell viability of LO2 cells exposed to APAP (MTT), liver injury model. It counts as cell-based, human.
Description: Cell culture and model construction: The experimental LO2 cells were provided by Shanghai Fuheng Biotechnology Co., Ltd. (Shanghai, China). Cells induced by APAP formed a cell model of liver injury. The cells were cultured in RPMI 1640 medium containing 100 units of penicillin, 100 μg/mL streptomycin, and 10% FBS at 37 °C and 5% CO2 atmosphere. The cells were changed daily and passaged when the contact reached 80%. Cells in the logarithmic growth phase were seeded onto a 96-well plate at a density of 4000 cells per well and subsequently incubated at 37 °C in an atmosphere containing 5% CO2. After 24 h of pre-incubation, cells were exposed to APAP at concentrations of 2, 4, 8, and 16 mM, followed by continued culture for the designated time periods. Subsequently, 20 μL of MTT solution (5 mg/mL, dissolved in PBS) was added to each well and incubated for an additional 4 h at 37 °C. To dissolve the formed formazan crystals, 200 μL of DMSO was added. The absorbance values were then measured at 490 nm using a microplate reader ([sequence] 200 PRO, Tecan, Männedorf, Switzerland). The cell survival rates at different APAP concentrations were calculated, and a cell survival rate below 60% was considered indicative of successful model construction. The specific formula employed for calculating the cell survival rate is provided below. […] Cell viability=AAPAP−ABlank/AControl−ABlank
The nature of data set [2]: Pharmacokinetics after oral gavage in rats (plasma, HPLC). The settings on record: male, Sprague Dawley, rat, po, 20 mg/kg. Type of data set: in vivo, Sprague Dawley rats. The text has this: Nine male Sprague Dawley rats, each weighing approximately 250 g ± 25 g, were meticulously selected as the experimental subjects (sourced from Beijing SPF Biotechnology Co., Ltd., (Beijing, China) SPF grade, licensed under SCXK (Jing) 2019-0010). The experimental protocol was approved by the Institutional Animal Care and Use Committee of Hebei Medical University and conformed to the Guide for Care and Use of Laboratory Animals (approval NO. 2023040). Prior to and throughout the experimental period, the rats were provided with unrestricted access to standard rodent chow and water. The housing facilities for these animals adhered strictly to the standards outlined by the International Association for the Evaluation and Certification of Laboratory Animal Care, ensuring optimal conditions for the animals’ wellbeing. The experimental feeding environment was maintained at a temperature of 22–24 °C, with a relative humidity of 50 ± 5%, and a 12-h light/dark cycle to mimic natural diurnal rhythms. The rats were randomly allocated into three distinct groups, with an equal distribution of three rats per group. MONO, DIAM, and MAGN were administered orally at a dose of 20 mg/kg. The amount administered was calculated as the contents of glycyrrhizinate or magnesium isoglycyrrhizinate. Each compound was dissolved in 0.5% carboxymethylcellulose sodium (CMC-Na) solution and delivered immediately to rats via gastric gavage. Blood samples of 0.2 mL were obtained at various time points post-administration (0.5, 1, 2, 4, 8, 12, 24, and 48 h) and centrifuged at 1500× g for 10 min at 4 °C, allowing for the separation of plasma, which was collected and stored at −20 °C for subsequent analysis.
Fifty microliters (50 μL) of plasma was obtained and spiked with 10 μL of dipyridamole solution as an internal standard. Subsequently, 100 μL of acetonitrile was added to precipitate the proteins, followed by vortex mixing. The mixture was centrifuged at 6000× g for 10 min at 4 °C. The resulting precipitate was discarded, and the supernatant was evaporated to dryness under a nitrogen stream at 60 °C. The residual precipitate was redissolved in 200 μL of mobile phase, vortexed for 5 min, and sonicated for 30 s. Following this, the solution was centrifuged again at 6000× g for 10 min at 4 °C. Then, 10 μL of the supernatant was injected and the chromatogram was recorded for analysis.
HPLC was employed using the Agilent 1200 series system (Agilent Technologies, Wilmington, DE, USA) with Agilent Chemstation LC B.04.03 Software. The separation was on a Venusil MP C18(2) chromatographic column (150 × 4.6 mm, 5 μm, Agela Technologies, Tianjin, China) based on the United States Pharmacopeia with adjustments performed. Isocratic elution with a mixture of 40 volumes of acetonitrile and 60 volumes of water (containing 0.5% acetic acid) was used. The flow rate and temperature were 1.0 mL/min and 40 °C, respectively. A volume of 10 μL of the sample was injected under 254 nm for analyses and with three repetitions for each test (n = 3). All the pharmacokinetic data were calculated by Drug and Statistics (DAS) 2.0 software (Mathematical Pharmacology Professional Committee of China, Shanghai, China) and presented as mean ± SD. The main parameters such as the area under the curve (AUC), the maximum plasma concentration (Cmax), the time to Cmax (Tmax), and elimination half-life (t1/2) were tabulated.

The subject of data set [3] is LO2 cells. The data set is described as follows: Hepatocyte protection rate in APAP-induced LO2 cells (MTT). It counts as cell-based, human. The settings on record: 16 mM APAP, 200, 400 and 600 μM. As for the experimental part: Assessment of hepatocyte-protective effects: Cells in the logarithmic growth phase were seeded onto a 96-well plate at a density of 4000 cells per well, followed by incubation at 37 °C in an atmosphere containing 5% CO2. After 24 h of incubation, cells were treated with 16 mM APAP, followed by the addition of MONO, DIAM, and MAGN at three escalating concentrations (200, 400, and 600 μM for each compound). The cell survival rate was quantitatively evaluated using MTT method. The protective efficacy of the compounds was then calculated employing the formula outlined below.(1) Hepatocytes protection rate=AGlycyrrhizinate−AAPAP/Anormal−AAPAP×1

In the case of `CC(=O)Nc1ccc(O)cc1` [APAP, acetaminophen], the “cytotoxicity towards LO2 cells” value with LO2 cells [1] (APAP 2-16 mM) is “concentration-dependent cytotoxicity”. Further, the cell survival rate result in the data set with LO2 cells [1] (APAP concentrations exceeding 16 mM, 24 h of APAP exposure) is on record as “below 60%”.

Regarding `CC1(C)[C@@H](O[C@H]2O[C@H](C(=O)O)[C@@H](O)[C@H](O)[C@H]2O[C@@H]2O[C@H](C(=O)O)[C@@H](O)[C@H](O)[C@H]2O)CC[C@]2(C)[C@H]3C(=O)C=C4[C@@H]5C[C@@](C)(C(=O)O)CC[C@]5(C)CC[C@@]4(C)[C@]3(C)CC[C@@H]12` [MONO, monoammonium glycyrrhizinate], the half-life in data set [2] (n = 3) is 10.8 ± 0.66 h. In addition, the AUC(0-t) in data set [2] (n = 3, read-out: AUC0-t) worked out at 320 ± 78.6 µg·h/mL. Moreover, the Cmax in data set [2] (n = 3, read-out: Cmax) worked out at 15000 ± 3640 ng/mL. In data set [2] (n = 3, read-out: Tmax), the Tmax stood at 8 h. In the data set with LO2 cells [3], the “hepatocyte protection (therapeutic effect)” value is listed as “concentration-dependent therapeutic effects”.

Broadly, the half-life is how long it takes for the measured level to halve. A low value points to fast loss. What is called Cmax is the peak of the concentration-time curve. As a reminder, the Tmax is the time at which the peak concentration occurs.
